The supplement of paper PMC10307832

How the values were obtained:
Test in all cases: relative viability (nuclei count vs DMSO), 5 days (fraction); higher = more cells survive
[1] = compound: C1=CC(=CC=C1NC(=S)NNC2=C(C=C(C=C2[N+](=O)[O-])C(F)(F)F)[N+](=O)[O-])F [Kobe2602]
In short: (§1)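 Lung cancer cell lines were seeded into 1536-well plates, kept overnight at 37 °C and pinned with five library-drug doses (not always all listed) spaced by √10. After 5 days, nuclei were Hoechst-stained, imaged at 4× and counted with MetaXpress. Viability is treated-well nuclei over vehicle-well nuclei, taken as a median across plates. Plates needed control CV below 25% and at least one doubling.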

[2] = compound: COc1cc2nccc(Oc3ccc(NC(=O)C4(C(=O)Nc5ccc(F)cc5)CC4)cc3)c2cc1OC [Cabozantinib]
In short: as §1

[3] = compound: O[C@@H](COc1cccc2ncccc12)CN1CCN([C@@H]2c3ccccc3[C@@H]3[C@H](c4ccccc42)C3(F)F)CC1 [Zosuquidar]
In short: as §1

Row | Cell Line | relative viability ([1]; 0.2 µM) | relative viability ([1]; 0.6325 µM) | relative viability ([1]; 2 µM) | relative viability ([1]; 6.325 µM) | relative viability ([1]; 20 µM) | relative viability ([2]; 0.02 µM) | relative viability ([2]; 0.06325 µM) | relative viability ([2]; 0.2 µM) | relative viability ([2]; 0.6325 µM) | relative viability ([2]; 2 µM) | relative viability ([3]; 0.01 µM) | relative viability ([3]; 0.03162 µM) | relative viability ([3]; 0.1 µM) | relative viability ([3]; 0.3162 µM) | relative viability ([3]; 1 µM)
1 | NCI-H2023 | 0.941 | 1.02 | 0.984 | 0.924 | 0.663 | 0.93 | 0.998 | 0.803 | 0.78 | 0.593 | 0.949 | 1.03 | 0.894 | 1.1 | 1.05
2 | ChaGo-K-1 | 1.09 | 1.04 | 0.946 | 0.979 | 0.972 | 1.06 | 1.05 | 1 | 0.909 | 1.01 | 1.02 | 0.998 | 0.978 | 1.02 | 0.999
3 | COR-L 105 | 0.899 | 1.06 | 0.858 | 0.985 | 0.914 | 0.844 | 0.991 | – | 0.888 | 0.857 | 0.955 | 0.841 | 0.796 | 1.04 | 0.905
4 | SK-MES-1 | 0.96 | 1.05 | 0.964 | 0.97 | 0.855 | 0.981 | 1.14 | 0.986 | 1.03 | 0.953 | 0.998 | 0.993 | 0.912 | 1.02 | 1.04
5 | A549 | 0.946 | 0.965 | 0.975 | 0.929 | 0.97 | 0.981 | 1.01 | 0.991 | 0.941 | 0.907 | 0.895 | 0.802 | 0.935 | 1.09 | 0.98
6 | NCI-H23 | 0.97 | 1.26 | 0.944 | 1.12 | 1.1 | – | 1.33 | 0.99 | 0.925 | 0.874 | 0.99 | 0.992 | 0.873 | 1.18 | 0.976
7 | NCI-H1993 | 0.877 | 0.993 | 0.876 | 0.792 | 0.87 | 0.681 | 0.787 | 0.584 | 0.734 | 0.788 | 0.925 | 0.879 | 0.685 | 1.06 | 0.826
8 | Calu-6 | 0.992 | 1.05 | 1.01 | 1.01 | 0.929 | 1.14 | 1.08 | 0.977 | 0.987 | 0.954 | 0.993 | 0.989 | 1.11 | 1.04 | 1.06
9 | NCI-H1648 | 1.22 | 0.902 | 0.701 | 0.824 | 0.763 | 0.868 | 0.991 | 0.629 | 1.07 | 0.802 | 0.969 | 0.947 | 0.676 | 0.673 | 0.852
10 | NCI-H1623 | 1.04 | 1 | 1.03 | 0.9 | 0.933 | 0.959 | 1.13 | 0.731 | 1 | 0.972 | 0.98 | 0.898 | 0.879 | 1 | 1.02
